Test results published in paper PMC8946662, “Topical Bimiralisib Shows Meaningful Cutaneous Drug Levels in Healthy Volunteers and Mycosis Fungoides Patients but No Clinical Activity in a First-in-Human, Randomized Controlled Trial” (Cancers, 2022).
Several values for one entry are separate records, joined by “and”; a condition that tells them apart may be missing. Equal values may be shown once. Entries after “also recorded” stand apart in the source; their conditions may differ. Read-outs that look alike come from different tables or passages of the source.

Key:
CTCL patients = test system: CTCL patients; set-up: method as in PMID 29233821; conditions: oral, 19 CTCL patients; cited from earlier work
CTCL cell lines = conditions: cited from earlier work
MF patients = test: Safety and tolerability in MF patients, part B; type: in vivo, human
Method: (§1) The healthy volunteers in part A were administered 2 mg/cm^2 topical bimiralisib 2% on 400 cm^2 and 2 mg/cm^2 vehicle gel (serving as placebo with identical appearance) on 100 cm^2 skin of the back once daily by the study physician for 21 consecutive days, all administered at the study site. The 19 patients in part B were randomized 1:1, with 9 assigned to active and 10 to placebo. Randomization was predefined and performed in SAS version 9.4 (SAS Institute, Cary, NC, USA) by an independent statistician, using the SAS code for the parallel, two-treatment randomization with block size 2. The investigators, study personnel, sponsor and patients were blinded for allocated treatment throughout the study. Patients randomized in the treatment group applied topical bimiralisib 2%, once daily for 42 consecutive days, whereas the control group applied the vehicle gel. During the treatment period, the patients applied the bimiralisib or vehicle themselves at home after training and instructions on day 1. After 42 days, patients with ≥15% lesion improvement by CAILS could enter a blinded extension period in which treatment was continued until day 84.
(§2) The secondary endpoint was to characterize local tolerability, safety and systemic exposure of bimiralisib by application site assessment using the Local Irritation Grading Scale (LIGS), adverse events (AEs), safety measurements and systemic pharmacokinetics.
(§3) The LIGS, a composite score of erythema, edema and desquamation, was used to assess the application site for safety or tolerability issues. In addition, safety and tolerability were evaluated by monitoring of AEs, physical examinations, vital signs, 12-lead ECGs and laboratory tests.

[1] = set-up: method as in earlier work; conditions: plasma; cited from earlier work
[2] = Systemic pharmacokinetics in plasma of healthy volunteers (UPLC-MS/MS), part A; type: in vivo, human; conditions: for AUC(0-t): topical, 2 mg/cm^2, HVs
Method: as §1
(§4) Blood samples for determination of bimiralisib levels in plasma of HVs were collected predose and at 1, 3, 6 and 24 h on days 7, 14 and 21 of application in part A. In part B, PK blood samples from patients were collected predose and at 1, 2, 3 and 6 h after dosing on day 42 (or on day 84 in case of participation in the extension study) of topical application.
(§5) Pharmacokinetics in plasma were analyzed with a validated ultra-performance liquid chromatography–tandem mass spectrometer method (UPLC-MS/MS) with a lower limit of quantification of 1.00 ng/mL of plasma.
(§6) Pharmacokinetic data were visualized for each subject and part separately. Due to differences in surface areas and applied doses between part A and part B, pharmacokinetic data were normalized to allow for the exploration of differences in exposure between HVs and patients after log transformation. For exploratory purposes, the applied dose was stratified by part and by number of lesions. The average concentration (Cavg) per subject was calculated based on all pharmacokinetic data of an individual combined.

[3] = Cutaneous pharmacokinetics in skin punch biopsies of MF patients (MALDI-MSI); type: in vivo, human; conditions: for concentration at 6 h: human, skin punch biopsy, topical, 2 % gel, MF patients
Method: (§7) To investigate cutaneous pharmacokinetics in both HVs and patients, 3 mm skin punch biopsies of the treatment area were taken 6 h after the last topical application (day 21 in part A and day 42/84 in part B, respectively) and snap-frozen within 5 min after collection. Skin punch biopsies were shipped to ImaBiotech (MS Imaging Department, Lille, France) and analyzed using matrix-assisted laser desorption/ionization mass spectrometry imaging (MALDI-MSI) to spatially visualize pharmacokinetics of bimiralisib throughout the biopsy (Figure 1).
(§8) Figure 1 Method of obtaining cutaneous pharmacokinetics of bimiralisib in HVs and early-stage MF patients. (A) Bimiralisib gel 2% is applied topically, in part A at the back of six HVs and in part B at 1–3 target MF lesions. (B) A full-thickness skin punch biopsy was taken on day 21 and day 42/84, respectively, for HVs and MF patients. Skin punch biopsy was snap-frozen within 5 min, processed and cryosectioned. A single section was used for H&E staining. (C) MALDI matrix spraying. (D) Prepared samples were ionized by a laser beam. (E) Seven tesla Matrix-assisted laser desorption/ionization Fourier transform ion cyclotron resonance mass spectrometry imaging (7T-MALDI-FTICR MSI) acquisition. (F) Acquired data are analyzed and MALDI images are acquired.
(§9) Pharmacokinetics in tissue were analyzed with a validated 7T-MALDI-FTICR method with a lower limit of quantification of 62 ng/g of tissue and an assay sensitivity of […] (lower limit of detection). Pharmacokinetic data below the lower limit of quantification but above the limit of detection were interpolated and used in the analysis.

[4] = test system: early-stage MF target lesions; test: Clinical efficacy and pharmacodynamics in early-stage MF patients (CAILS, LSCI, OCT, multispectral imaging); type: in vivo, human
Method: as §1
(§10) At baseline of part B, one to three MF lesions (target lesions) were chosen to define a 150–200 cm^2 treatment area. Other MF lesions were left untreated in this study. Emollients, i.e., unguentum leniens, were distributed to patients and allowed for daily use on the skin, barring the target lesion(s). In part B, patient visits to the study site were scheduled for days −42 (run-in period), 1, 14, 28, 42 (end of treatment for all patients with <15% lesion improvement), 56 and 70 (end of study). Patients continuing with the extended treatment period had three extra visits on days 84 (end of treatment), 98 and 112 (end of study). Study details are provided in the assessment schedule (Table 1, Part B).
The primary endpoint was to evaluate the efficacy of bimiralisib versus placebo after 6 weeks of treatment by the change from baseline on Composite Assessment of Index Lesion Severity (CAILS). Clinical efficacy was assessed by the CAILS per target lesion, which is a score derived from individual scores for erythema, desquamation, plaque elevation, hypo- or hyperpigmentation and lesion size. Change from baseline of the combined CAILS score for all target lesions was used to calculate the objective response rate (ORR), i.e., the number of patients with complete response (CR: 100% clearance of target lesions from baseline) and partial response (PR: 50%–99% clearance) divided by the total number of patients in the respective treatment arm. […] Target lesions were extensively characterized by the assessment of skin perfusion with laser speckle contrast imaging (LSCI, PeriCam PSI NR system, Perimed, Sweden); skin morphology (blood flow) by optical coherence tomography (OCT, VivoSight, Michelson Diagnostics, UK); and erythema, roughness and edema by a multispectral camera (Antera 3D, Miravez, Ireland). The Scarlet Red app (ScarletRed Vision, Vienna, Austria) was used by patients at home for daily photo documentation and erythema quantification of a single target lesion.
All safety and statistical calculations were conducted with SAS version 9.4 for Windows (SAS Institute, Cary, NC, USA). PK parameter calculations were conducted with R version 4.0.3 for Windows (R Foundation for Statistical Computing, Vienna, Austria). All efficacy endpoints were analyzed for both the per protocol set and full analysis set, using a mixed model analysis of covariance (ANCOVA) with treatment, time and interaction of treatment by time as fixed factors; baseline as covariate; and subject as random factor.

[5] = Systemic pharmacokinetics in plasma of early-stage MF patients (UPLC-MS/MS), part B; type: in vivo, human
Method: as §1, §10, §4, §5, §6

[6] = Cutaneous pharmacokinetics in skin punch biopsies of healthy volunteers (MALDI-MSI); type: in vivo, human; conditions: for Kp at 6 h / concentration at 6 h: human, topical; for Kp at 6 h: skin / plasma, 2 mg/cm^2, HVs; for concentration at 6 h: 2 mg/cm^2, HVs, day 21, 6 h after last application
Method: as §7, §8, §9

healthy volunteers = test: Safety and tolerability in healthy volunteers, part A; type: in vivo, human
Method: as §1, §2, §3

C[C@H](Nc1ncnc2nc[nH]c12)c1cc2cccc(Cl)c2c(=O)n1-c1ccccc1 [duvelisib]
complete responders by mSWAT (CTCL patients): 3 | partial responders by mSWAT (CTCL patients): 6

CO[C@H]1C[C@@H]2CC[C@@H](C)[C@@](O)(O2)C(=O)C(=O)N2CCCC[C@H]2C(=O)O[C@H]([C@H](C)C[C@@H]2CC[C@@H](OCCO)[C@H](OC)C2)CC(=O)[C@H](C)/C=C(\C)[C@@H](O)[C@@H](OC)C(=O)[C@H](C)C[C@H](C)/C=C/C=C/C=C/1C [everolimus]
antitumor activity in vitro (CTCL cell lines): has antitumor activity in vitro

Nc1cc(C(F)(F)F)c(-c2nc(N3CCOCC3)nc(N3CCOCC3)n2)cn1 [bimiralisib, 5-(4,6-Dimorpholino-1,3,5-triazin-2-yl)-4-(trifluoromethyl)pyridin-2-amine]
vital signs, laboratory analyses, ECG, urinalysis (MF patients; both parts): did not result in any clinically significant changes | overall tolerability (MF patients; local reactions and systemic adverse events, HVs and MF patients): safe and well tolerated | myalgia, patients (MF patients; part B, bimiralisib group, 2/9): 22.2% | mild dryness at the application site, patients (MF patients; part B, bimiralisib group, day 14): 1/9 | well-defined erythema at the application site, patients (MF patients; part B, bimiralisib group, day 28): one | patients with at least one AE (MF patients; part B, bimiralisib group, six of nine patients): 66.7% | human no observed adverse effect level (NOAEL Cmax) [1]: 96.6 ng/mL | mean Cavg in plasma ([2]; HVs, 2 mg/cm^2 gel 2% on 400 cm^2 once daily for 21 days): 0.96 ng/mL and 0.956 ng/mL | time at which steady state is reached ([2]; HVs, topical gel once daily): < 7 days | plasma concentrations relative to human NOAEL ([2]; HVs, NOAEL 96.6 ng/mL): detectable but low and substantially below | Cmax ([2]; human, plasma, 2 mg/cm^2, HVs, topical once daily, read-out: highest Cmax in plasma): 2.74 ng/mL | AUC(0-t) ([2]; human, plasma, after 14 days of once-daily gel, read-out: highest AUC(0-24h)): 40 ng·h/mL | AUC(0-t) ([2]; human, plasma, day 7, read-out: mean AUC(0-24 h)): 21.3 ng·h/mL | AUC(0-t) ([2]; human, plasma, day 14, read-out: mean AUC(0-24 h)): 22.2 ng·h/mL | exposure in papillary dermis, lower than in epidermis ([3]; Figure 5, single HV and single MF patient, MALDI-MSI): approximately 10 fold | concentration at 6 h ([3]; day 42/84, 6 h after last application, read-out: mean cutaneous concentration in skin punch biopsies): 5300 ng/g | concentration at 6 h ([3]; day 42/84, read-out: cutaneous concentration in skin punch biopsies, range): 300 to 30200 ng/g | efficacy by CAILS vs placebo, in words ([4]; 42 days once-daily treatment, p = 0.74 over time, p = 0.98 on day 42): No statistical significant difference; also recorded: no statistically significant clinical response | objective response rates between treatment groups ([4]; Table S7): No substantial differences | subjects with ≥15% lesional response by CAILS ([4]; bimiralisib group (n = 9), day 42): Three | clinical response classification ([4]; bimiralisib group, by CAILS): stable disease | difference in change from baseline in CAILS, bimiralisib vs placebo ([4]; day 42, once daily, 95% CI −3.3–3.4, p = 0.9820): 0.0 | skin perfusion (LSCI), blood flow (OCT), erythema and roughness by 3D multispectral imaging ([4]; target lesions): no improvement | highest plasma concentration reached ([5]; MF patients): 18.70 ng/mL | mean Cavg in plasma ([5]; MF patients, gel 2% once daily, day 42 or 84): 4.49 ng/mL | plasma concentrations relative to NOAEL ([5]; MF patients, NOAEL 96.6 ng/mL): substantially below | mean ratio of normalized plasma concentration, MF patients vs HVs ([5]; normalized around 200 cm^2/(2 mg/cm^2)): 2.44 fold | increase in normalized plasma concentration, MF patients compared to HVs ([5]; normalized for applied dose and area): 144% | Kp at 6 h ([6]; read-out: mean ratio skin/plasma concentration): 3050 | Kp at 6 h ([6]; read-out: ratio skin/plasma concentration, range): 1210 to 7360 | concentration at 6 h ([6]; skin punch biopsy (epidermis), epidermis, read-out: mean concentration in skin punch biopsies): 2540 ng/g | concentration at 6 h ([6]; skin punch biopsy, read-out: concentration in skin punch biopsies, range): 1030 to 5700 ng/g | exposure in papillary and reticular dermis, lower than in epidermis ([6]; part A skin punch biopsies): approximately 10 fold | local exposure in epidermis relative to IC90 of pAKT and pS6 ([6]; part A skin punch biopsies, IC90 from ref 31, 32): within range of the IC90 of pAKT and pS6 | acne at the application site, subjects (healthy volunteers; bimiralisib area, n = 3): 50% | LIGS scores, bimiralisib vs placebo areas (healthy volunteers; full course): comparable | subjects with one or more adverse events (healthy volunteers; n = 6, each subject received both bimiralisib and placebo areas): 100% | dryness at the application site, subjects (healthy volunteers; reported for both placebo- and bimiralisib-treated areas): 83.3%
